Reference: patent publication US20260374739A1, “SMALL MOLECULAR WEIGHT CHEMICAL COMPOUND TO ANTAGONIZE EPH-EPHRIN TETRAMERIZATION AND INHIBIT BIDIRECTIONAL SIGNALING” (THE BOARD OF REGENTS OF THE UNIVERSITY OF TEXAS SYSTEM, priority 2022, published 2026)
Values joined by “and” are separate entries in the source; they are usually repeats but may differ in a detail not shown here. Identical values can stand only once. “Also recorded” adds a separate entry of the source. Like-named read-outs stand apart in the source and are kept apart here. Marks after values point to notes of the source that are not given here.

Tests used:
EphrinB2-EphB1 = target: T1, EphrinB2-EphB1 (Homo sapiens, UniProt P54762); test: Octet 80 sec association/500 sec dissociation, immobilized human EphrinB2-Fc binding to soluble human EphB1-His; settings: for % Inhibition: Association + Dissociation (160 sec) / inhibition at 3.2 µM: 25 nM EphB1, 3.2 μM compound, A20-I as max control, 0* = less than 0, no inhibition; for EphB1 Inhibition Percent, Inhibition of Association ONLY: at 3.2 μM and 80 seconds; for EphB1 Inhibition Percent, Inhibition of Association ONLY / EphB1 Inhibition Percent, Inhibition of Association-Dissociation: immobilized human EphrinB2, 25 nM soluble human EphB1; for EphB1 Inhibition Percent, Inhibition of Association-Dissociation: at 3.2 μM and 580 seconds; for inhibition: highest dose, typically 3.2 μM
T1 construct: soluble human EphB1-His, EphB2-His, and EphB4-His ectodomains; commercially available human EphrinB1-Fc (EB1), EphrinB2-Fc (EB2), and EphrinB3-Fc (EB3) ectodomain proteins; purchased
T1 sequence (P54762 18-540 limits assumed): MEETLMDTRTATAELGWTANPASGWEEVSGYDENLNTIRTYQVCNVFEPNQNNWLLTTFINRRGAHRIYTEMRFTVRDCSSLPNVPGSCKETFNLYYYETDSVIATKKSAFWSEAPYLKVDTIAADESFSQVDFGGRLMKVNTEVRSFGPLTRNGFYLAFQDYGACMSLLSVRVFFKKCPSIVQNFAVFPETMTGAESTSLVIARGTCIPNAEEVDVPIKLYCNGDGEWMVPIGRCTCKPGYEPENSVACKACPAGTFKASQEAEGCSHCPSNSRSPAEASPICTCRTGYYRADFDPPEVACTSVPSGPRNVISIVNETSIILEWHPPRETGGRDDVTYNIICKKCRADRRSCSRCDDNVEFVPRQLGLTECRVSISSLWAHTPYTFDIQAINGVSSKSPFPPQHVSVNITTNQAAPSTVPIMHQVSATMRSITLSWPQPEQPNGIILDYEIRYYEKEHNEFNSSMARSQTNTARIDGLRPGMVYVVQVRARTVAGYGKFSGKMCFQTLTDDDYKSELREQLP
Procedure, shortened: (§1)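 EphrinB2-Fc captured on AHC biosensors, then soluble His-tagged EphB ectodomain (25 nM for % inhibition runs) associated 80 s and dissociated 500 s in PBS, 0.05% Tween-20, 1% DMSO ± compound. Compounds tested at 0.1–3.2 μM with a 10 μM max standard; IC50 from AUC of full traces or at 75 s and 135 s.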

EphrinB2-EphB4 = target: T2, EphrinB2-EphB4 (Homo sapiens, UniProt P54760); test: Octet 80 sec association/500 sec dissociation, immobilized human EphrinB2-Fc binding to soluble human EphB4-His; settings: for EphB4 Inhibition Percent, Inhibition of Association ONLY: at 3.2 μM and 80 seconds; for EphB4 Inhibition Percent, Inhibition of Association ONLY / EphB4 Inhibition Percent, Inhibition of Association-Dissociation: immobilized human EphrinB2, 25 nM soluble human EphB4; for EphB4 Inhibition Percent, Inhibition of Association-Dissociation: at 3.2 μM and 580 seconds; for inhibition at 3.2 µM: 25 nM EphB4, 3.2 μM compound, A20-I as max control, 0* = less than 0, no inhibition; for inhibition: highest dose, typically 3.2 μM
T2 construct: soluble human EphB1-His, EphB2-His, and EphB4-His ectodomains; commercially available human EphrinB1-Fc (EB1), EphrinB2-Fc (EB2), and EphrinB3-Fc (EB3) ectodomain proteins; purchased
T2 sequence (P54760 16-539 limits assumed): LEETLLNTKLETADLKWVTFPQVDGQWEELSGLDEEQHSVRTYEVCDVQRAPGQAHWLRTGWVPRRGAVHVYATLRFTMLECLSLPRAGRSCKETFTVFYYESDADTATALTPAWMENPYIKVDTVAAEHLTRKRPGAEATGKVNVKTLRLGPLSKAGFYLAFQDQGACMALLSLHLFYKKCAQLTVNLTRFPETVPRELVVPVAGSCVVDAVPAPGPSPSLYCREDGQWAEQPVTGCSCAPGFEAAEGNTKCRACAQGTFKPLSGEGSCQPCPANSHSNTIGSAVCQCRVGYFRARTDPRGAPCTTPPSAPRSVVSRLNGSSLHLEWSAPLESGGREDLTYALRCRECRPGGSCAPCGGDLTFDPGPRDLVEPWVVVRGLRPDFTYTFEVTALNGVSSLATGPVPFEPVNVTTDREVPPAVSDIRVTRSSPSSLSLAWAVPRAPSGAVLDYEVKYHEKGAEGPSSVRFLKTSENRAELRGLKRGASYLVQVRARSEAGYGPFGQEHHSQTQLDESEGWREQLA
Procedure, shortened: as §1

[1] = EphB1, read-out: % Inhibition: Association + Dissociation (160 sec)
[2] = EphB1, read-out: % Inhibition: Association ONLY (80 sec)
[3] = EphB4, read-out: % Inhibition: Association + Dissociation (160 sec)
[4] = EphB4, read-out: % Inhibition: Association ONLY (80 sec)

Oc1ccc(CN2CCN(c3ccc(Br)cc3)CC2)c2cccnc12 [Compound 26, 5-((4-(4-bromophenyl)piperazin-1-yl)methyl)quinolin-8-ol]
% Inhibition: Association + Dissociation (160 sec) (EphrinB2-EphB1; EphB1, listed as QPB4): 35.0% | inhibition at 3.2 µM (EphrinB2-EphB1; [1]): 30.6% | EphB1 Inhibition Percent, Inhibition of Association ONLY (EphrinB2-EphB1): 11.2% | EphB1 Inhibition Percent, Inhibition of Association-Dissociation (EphrinB2-EphB1): 36.6% | selectivity among EphrinB2-EphB1/B2/B4 (EphrinB2-EphB4; 3.2 μM, listed as QPB4): ability to selectively inhibit EphrinB2-EphB2 and EphrinB2-EphB1 interactions, while sparing the EphrinB2-EphB4 interaction; also recorded: less action towards EphB4 but high specificity for EphB1 and EphB2 | EphB4 Inhibition Percent, Inhibition of Association ONLY (EphrinB2-EphB4): 0*% | EphB4 Inhibition Percent, Inhibition of Association-Dissociation (EphrinB2-EphB4): 0*%

COc1ccccc1N1CCN(Cc2cc(I)c(O)c3ncccc23)CC1 [Compound 71, 7-iodo-5-((4-(2-methoxyphenyl)piperazin-1-yl)methyl)quinolin-8-ol]
inhibition at 3.2 µM (EphrinB2-EphB1; [1]): 52.3% | inhibition at 3.2 µM (EphrinB2-EphB1; [2]): 39.6% | inhibition at 3.2 µM (EphrinB2-EphB4; [3]): 35.6% | inhibition at 3.2 µM (EphrinB2-EphB4; [4]): 17.5%

O=[N+]([O-])c1cc(CN2CCOCC2)c2cccnc2c1O [Compound 10, 4-((8-hydroxy-7-nitroquinolin-1-ium-5-yl)methyl)morpholin-4-ium chloride]
% Inhibition: Association + Dissociation (160 sec) (EphrinB2-EphB1; EphB1, listed as A19-NO2 (B)): 14.2% | EphB1 Inhibition Percent, Inhibition of Association-Dissociation (EphrinB2-EphB1): 23.1% and 14.2% and 20.2% | EphB4 Inhibition Percent, Inhibition of Association ONLY (EphrinB2-EphB4): 0.1% and 0% and 4.1% | EphB4 Inhibition Percent, Inhibition of Association-Dissociation (EphrinB2-EphB4): 9.0% and 0% and 5.9%

Oc1c(CN2CCCCC2)cc(Cl)c2cccnc12 [Compound 76, 5-chloro-7-(piperidin-1-ylmethyl)quinolin-8-ol, reference compound]
EphB1 Inhibition Percent, Inhibition of Association-Dissociation (EphrinB2-EphB1): 51.5% and 43.1% | EphB4 Inhibition Percent, Inhibition of Association ONLY (EphrinB2-EphB4): 17.9% and 11.6% | EphB4 Inhibition Percent, Inhibition of Association-Dissociation (EphrinB2-EphB4): 34.5% and 29.6%

Oc1c(Br)cc(CN2CCOCC2)c2cccnc12 [Compound 6, 4-((7-bromo-8-hydroxyquinolin-1-ium-5-yl)methyl)morpholin-4-ium chloride]
EphB1 Inhibition Percent, Inhibition of Association ONLY (EphrinB2-EphB1): 33.5% | EphB1 Inhibition Percent, Inhibition of Association-Dissociation (EphrinB2-EphB1): 48.7% | EphB4 Inhibition Percent, Inhibition of Association ONLY (EphrinB2-EphB4): 20.0% | EphB4 Inhibition Percent, Inhibition of Association-Dissociation (EphrinB2-EphB4): 35.9%

Oc1c(Cl)cc(CN2CCOCC2)c2cccnc12 [Compound 3, 7-chloro-5-(morpholinomethyl)quinolin-8-ol]
inhibition at 3.2 µM (EphrinB2-EphB1; [1]): 48.4% | inhibition at 3.2 µM (EphrinB2-EphB1; [2]): 34.2% | inhibition at 3.2 µM (EphrinB2-EphB4; [3]): 35.5% | inhibition at 3.2 µM (EphrinB2-EphB4; [4]): 16.8%

Oc1c(Br)cc(CN2CCN(c3ccc(Br)cc3)CC2)c2cccnc12 [Compound 28, 7-bromo-5-((4-(4-bromophenyl)piperazin-1-yl)methyl)quinolin-8-ol]
% Inhibited (AUC), Association + Dissociation (EphrinB2-EphB1; EphB1, 0-160 sec, 50 nM, 10 μM compound, Table 4): 38.6% | % Inhibited (AUC), Association (EphrinB2-EphB1; EphB1, 50 nM, 10 μM compound, Table 4): 24.7% | IC50 (EphrinB2-EphB1; EphB1, Association (75″), read-out: Absolute IC50): > 3200 nM | IC50 (EphrinB2-EphB1; EphB1, Association (75″), read-out: Relative IC50): 100 nM | IC50 (EphrinB2-EphB1; EphB1, Association (AUC), read-out: Absolute IC50): > 3200 nM | IC50 (EphrinB2-EphB1; EphB1, Association (AUC), read-out: Relative IC50): 100 nM | IC50 (EphrinB2-EphB1; EphB1, Dissociation (135″), read-out: Absolute IC50): 360 nM | IC50 (EphrinB2-EphB1; EphB1, Dissociation (135″), read-out: Relative IC50): 80 nM | IC50 (EphrinB2-EphB1; EphB1, Full AUC, read-out: Absolute IC50): 500 nM | IC50 (EphrinB2-EphB1; EphB1, Full AUC, read-out: Relative IC50): 170 nM | inhibition (EphrinB2-EphB1; EphB1, read-out: Association (% Inhibited (AUC))): 39.1% | inhibition (EphrinB2-EphB1; EphB1, read-out: Association + Dissociation (% Inhibited (AUC))): 53.1% | % Inhibited (AUC), Association + Dissociation (EphrinB2-EphB4; EphB4, 0-160 sec, 50 nM, 10 μM compound, Table 4): 29.3% | % Inhibited (AUC), Association (EphrinB2-EphB4; EphB4, 50 nM, 10 μM compound, Table 4): 16.6% | IC50 (EphrinB2-EphB4; EphB4, Association (75″), read-out: Absolute IC50): > 3200 nM | IC50 (EphrinB2-EphB4; EphB4, Association (75″), read-out: Relative IC50): 80 nM | IC50 (EphrinB2-EphB4; EphB4, Association (AUC), read-out: Absolute IC50): > 3200 nM | IC50 (EphrinB2-EphB4; EphB4, Association (AUC), read-out: Relative IC50): 120 nM | IC50 (EphrinB2-EphB4; EphB4, Dissociation (135″), read-out: Absolute IC50): 780 nM | IC50 (EphrinB2-EphB4; EphB4, Dissociation (135″), read-out: Relative IC50): 200 nM | IC50 (EphrinB2-EphB4; EphB4, Full AUC, read-out: Absolute IC50): 320 nM | IC50 (EphrinB2-EphB4; EphB4, Full AUC, read-out: Relative IC50): 260 nM | inhibition (EphrinB2-EphB4; EphB4, read-out: Association (% Inhibited (AUC))): 12.5% | inhibition (EphrinB2-EphB4; EphB4, read-out: Association + Dissociation (% Inhibited (AUC))): 36.4%

OCc1ccc2c(CN3CCOCC3)cc(Br)c(O)c2n1 [Compound 13, 7-bromo-2-(hydroxymethyl)-5-(morpholinomethyl)quinolin-8-ol]
inhibition at 3.2 µM (EphrinB2-EphB1; [1]): 29.1% | inhibition at 3.2 µM (EphrinB2-EphB1; [2]): 12.4% | inhibition at 3.2 µM (EphrinB2-EphB4; [3]): 7.6% | inhibition at 3.2 µM (EphrinB2-EphB4; [4]): 0%

COc1ccc2[nH]cc(C(=O)N3CCOCC3)c2c1 [Compound 63, (5-methoxy-1H-indol-3-yl)(morpholino)methanone]
inhibition at 3.2 µM (EphrinB2-EphB1; [1]): 0% | inhibition at 3.2 µM (EphrinB2-EphB1; [2]): 1.19% | EphB1 Inhibition Percent, Inhibition of Association ONLY (EphrinB2-EphB1): 1.2% | inhibition at 3.2 µM (EphrinB2-EphB4; [3]): 0% | inhibition at 3.2 µM (EphrinB2-EphB4; [4]): 0%

Oc1ccc(CN2CCCCC2)c2cccnc12 [Compound 68, 5-(piperidin-1-ylmethyl)quinolin-8-ol, reference compound]
EphB1 Inhibition Percent, Inhibition of Association ONLY (EphrinB2-EphB1): 28.3% | EphB1 Inhibition Percent, Inhibition of Association-Dissociation (EphrinB2-EphB1): 46.8% | EphB4 Inhibition Percent, Inhibition of Association ONLY (EphrinB2-EphB4): 0*% | EphB4 Inhibition Percent, Inhibition of Association-Dissociation (EphrinB2-EphB4): 5.8%

Oc1c(Br)cc(CN2CCN(c3ccc(Br)cc3)CC2)c2cccnc12 [Compound 30, 7-bromo-5-((4-(4-bromophenyl)piperazin-1-ium-1-yl)methyl)-8-hydroxyquinolin-1-ium chloride]
EphB1 Inhibition Percent, Inhibition of Association ONLY (EphrinB2-EphB1): 24.7% and 39.1% | EphB1 Inhibition Percent, Inhibition of Association-Dissociation (EphrinB2-EphB1): 38.6% and 53.1% | EphB4 Inhibition Percent, Inhibition of Association ONLY (EphrinB2-EphB4): 16.6% and 12.5% | EphB4 Inhibition Percent, Inhibition of Association-Dissociation (EphrinB2-EphB4): 29.3% and 36.4%

Oc1c(I)cc(CN2CCOCC2)c2cccnc12 [Compound 8, 4-((8-hydroxy-7-iodoquinolin-1-ium-5-yl)methyl)morpholin-4-ium chloride]
EphB1 Inhibition Percent, Inhibition of Association-Dissociation (EphrinB2-EphB1): 53.2%
